The values that follow come from patent US20130109682A1, “CYCLIC ETHER COMPOUNDS USEFUL AS KINASE INHIBITORS” (NOVARTIS AG, priority 2010, published 2013).

SMILES strings stand for the structures. pEC50, pIC50: −log10 of the molar value. Like-named read-outs stand apart in the source and are kept apart here.

Broadly, the pIC50 is −log10 of the IC50, conventionally taken in molar units. A word on the pEC50: it is the negative decadic logarithm of the EC50, by convention in mol/L.

Assay [1] deals with T1, PIM1 (Homo sapiens, UniProt P11309). Kind of assay: KinaseGlo Pim1 ATP depletion assay. In kind it is biochemical. The method, boiled down:
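IC50 is derived from residual ATP measured by KinaseGlo Plus luminescence once about half the ATP was consumed. Final conditions were 20 μM ATP, 40 μM BAD peptide and 2.5 nM kinase in HEPES pH 7.5 buffer with MgCl2, DTT and BSA, plus 2.5% DMSO. Compound and enzyme were premixed 15 min before ATP addition.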
Background: In Kinase-Glo more light means more ATP remaining.

In assay [2] the target is T2, PIM2 (Homo sapiens, UniProt Q9P1W9). The assay is described as follows: KinaseGlo Pim2 ATP depletion assay. In kind it is biochemical. A digest of the protocol:
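Compound sat 15 min with enzyme and BAD peptide before ATP was added; final levels 5 nM PIM2, 10 μM peptide, 4 μM ATP, 2.5% DMSO, pH 7.5 HEPES buffer with MgCl2, DTT, BSA. Stopped near 50% ATP consumption; remaining ATP measured by luciferase luminescence.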

Assay [3] has as its target T3, PIM3 (Homo sapiens, UniProt Q86V86). The assay is described as follows: KinaseGlo Pim3 ATP depletion assay. In kind it is biochemical. A digest of the protocol: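 Residual ATP was detected by luciferase luminescence once about half had been consumed. The reaction contained 5 nM enzyme, 100 μM BAD peptide (RSRHSSYPAGT) and 40 μM ATP in 50 mM HEPES pH 7.5, 5 mM MgCl2, 1 mM DTT and 0.05% BSA with 2.5% DMSO. Compound and enzyme/peptide were premixed 15 min before ATP.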

Another assay has as its target GSK3β (Homo sapiens, UniProt P49841). The assay is described as follows: GSK3β ATP depletion assay. The format is biochemical. The settings on record: read-out: GSK3b IC50. A digest of the protocol: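 Kinase activity is read as ATP consumption: luciferase luminescence reports the ATP remaining once roughly half of the 2 μM ATP is used. Reaction mix: 5 nM GSK3β, 10 μM b-CREB peptide, 50 mM Tris pH 7.5, 15 mM MgCl2, 1 mM DTT, 0.1% BSA, 2.5% DMSO. Enzyme and peptide are preincubated 15 min before ATP is added.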

Assay [4] deals with KMS11 (human myeloma cell line). The assay is described as follows: Cell proliferation assay (CellTiter-Glo), KMS11. The format is cell-based. As to conditions: Homo sapiens, KMS-11. A digest of the protocol: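 EC50 derived from CellTiter-Glo luminescence after 3-day exposure at 37° C. Compound was diluted to 2× in medium and added to an equal volume of cells. KMS11 myeloma cells were plated on assay day at 2000/well in IMDM with 10% FBS and sodium pyruvate.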

In the next assay the target is T4, hERG (Homo sapiens, UniProt Q12809).
T4 construct: host or cells: crude membrane suspension
Kind of assay: hERG binding assay ([3H] dofetilide displacement). The settings on record: dofetilide displacement; read-out: HERGdof IC50. The procedure: Compounds of the invention were pipetted into each well of pre-wet 96-well Millipore GF/C filter plates (#MSFCN6B50): 119 μl assay buffer, 1 μl test compound in 100% DMSO (or 100% DMSO only for total binding), 40 μl [3H] dofetilide (12.5 nM, final concentration 2.5 nM; Novartis radioisotope laboratory, East Hanover, N.J., USA, specific activity 15-45 Ci/mmol); 40 μl crude membrane suspension (ca. 15 μg protein). The final concentration of DMSO during the incubation was 0.5%. Incubations were performed at room temperature for 90 min. Non-specific binding (NSB) was defined as the binding remaining in the presence of 25 μM terfenadine (Sigma T9652). The incubations were terminated by rapid filtration on a Millipore filtration manifold, followed by three washes of 200 μA ice-cold assay buffer. The plates were left to dry overnight before adding 40 μA scintillant (MicroScint-20). The plates were then sealed (Sealing Tape SI, Nunc 236366) and read in a Wallac MicroBeta Trilux beta-counter for 1.5 min per well. Compounds were tested as 9-concentration response curves in duplicate, ranging from 30 μM to 3 nM in 1:3 dilution steps. Dilution curves were prepared in 100% DMSO. The reference compound (terfenadine) was tested as an eight-concentration response curve, ranging from 10 μM to 0.6 nM in 1:4 dilution steps.
(In general: hERG is a cardiac potassium channel; its block is linked to QT prolongation.)

The target of assay [5] is T1, PIM1. Kind of assay: Pim 1 AlphaScreen assay (high ATP). In kind it is biochemical. The settings on record: read-out: Pim1 IC50. A digest of the protocol:
(§1)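 IC50 values rest on detection of phosphorylated Bad peptide: after a ~2 h kinase reaction, an EDTA stop buffer containing anti-phospho Ser/Thr antibody, Protein A and streptavidin AlphaScreen beads was added and read after overnight dark incubation. ATP was high (11-125× Km), with 2.5% DMSO in pH 7.5 Hepes buffer containing MgCl2, BSA, Tween-20 and DTT.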
On the technique in general: Bead proximity is the source of the signal in Alpha formats.

Assay [6] concerns the target T2, PIM2. The assay is described as follows: Pim 2 AlphaScreen assay (high ATP). The settings on record: read-out: Pim2 IC50. In kind it is biochemical. A digest of the protocol: as §1
For assay [7], the target named is T3, PIM3. Kind of assay: Pim 3 AlphaScreen assay (high ATP). In kind it is biochemical. As to conditions: read-out: Pim3 IC50. A digest of the protocol:
as §1

Where [8] appears, read: KMS11 cells, cell proliferation, read-out: KMS11-Luc EC50.

T4 sequence (Q12809 whole entry): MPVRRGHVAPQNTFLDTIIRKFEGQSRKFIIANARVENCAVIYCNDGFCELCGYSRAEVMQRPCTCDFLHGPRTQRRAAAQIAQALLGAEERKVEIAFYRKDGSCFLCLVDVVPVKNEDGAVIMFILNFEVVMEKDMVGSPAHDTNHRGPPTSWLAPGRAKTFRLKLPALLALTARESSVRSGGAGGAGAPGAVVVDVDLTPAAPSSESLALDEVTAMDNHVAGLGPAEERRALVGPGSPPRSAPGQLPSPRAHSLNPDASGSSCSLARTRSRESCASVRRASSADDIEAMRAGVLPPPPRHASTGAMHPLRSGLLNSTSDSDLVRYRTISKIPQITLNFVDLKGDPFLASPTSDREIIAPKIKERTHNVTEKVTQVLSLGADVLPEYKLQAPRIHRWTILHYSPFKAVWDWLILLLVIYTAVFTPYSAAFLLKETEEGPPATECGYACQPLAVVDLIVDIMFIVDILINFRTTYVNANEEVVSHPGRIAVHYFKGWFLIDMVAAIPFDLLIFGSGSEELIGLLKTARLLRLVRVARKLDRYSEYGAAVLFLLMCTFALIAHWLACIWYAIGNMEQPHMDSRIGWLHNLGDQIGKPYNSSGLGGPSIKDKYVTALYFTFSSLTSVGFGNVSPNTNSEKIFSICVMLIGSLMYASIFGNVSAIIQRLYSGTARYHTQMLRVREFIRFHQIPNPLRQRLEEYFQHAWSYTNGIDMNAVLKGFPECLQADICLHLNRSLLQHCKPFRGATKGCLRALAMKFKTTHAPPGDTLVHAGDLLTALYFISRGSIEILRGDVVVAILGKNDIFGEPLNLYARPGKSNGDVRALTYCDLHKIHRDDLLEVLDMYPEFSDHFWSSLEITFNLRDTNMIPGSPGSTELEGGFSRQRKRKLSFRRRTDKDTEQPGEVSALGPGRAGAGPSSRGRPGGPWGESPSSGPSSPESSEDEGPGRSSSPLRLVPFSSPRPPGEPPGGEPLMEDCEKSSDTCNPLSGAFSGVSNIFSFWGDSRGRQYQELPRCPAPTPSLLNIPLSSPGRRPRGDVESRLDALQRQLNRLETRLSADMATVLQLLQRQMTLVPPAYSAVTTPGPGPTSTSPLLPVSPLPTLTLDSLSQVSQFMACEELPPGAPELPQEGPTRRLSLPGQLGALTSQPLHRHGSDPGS
T2 sequence (Q9P1W9 whole entry): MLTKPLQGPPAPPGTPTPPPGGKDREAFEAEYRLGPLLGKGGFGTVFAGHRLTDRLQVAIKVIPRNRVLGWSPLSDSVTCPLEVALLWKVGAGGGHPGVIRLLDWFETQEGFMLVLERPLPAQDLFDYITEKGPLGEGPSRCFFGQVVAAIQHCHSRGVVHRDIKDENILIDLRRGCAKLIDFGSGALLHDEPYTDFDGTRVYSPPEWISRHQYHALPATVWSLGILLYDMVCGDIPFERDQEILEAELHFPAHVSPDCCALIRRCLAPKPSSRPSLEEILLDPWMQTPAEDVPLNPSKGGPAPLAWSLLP
Sequence of GSK3β (P49841 whole entry, species assumed): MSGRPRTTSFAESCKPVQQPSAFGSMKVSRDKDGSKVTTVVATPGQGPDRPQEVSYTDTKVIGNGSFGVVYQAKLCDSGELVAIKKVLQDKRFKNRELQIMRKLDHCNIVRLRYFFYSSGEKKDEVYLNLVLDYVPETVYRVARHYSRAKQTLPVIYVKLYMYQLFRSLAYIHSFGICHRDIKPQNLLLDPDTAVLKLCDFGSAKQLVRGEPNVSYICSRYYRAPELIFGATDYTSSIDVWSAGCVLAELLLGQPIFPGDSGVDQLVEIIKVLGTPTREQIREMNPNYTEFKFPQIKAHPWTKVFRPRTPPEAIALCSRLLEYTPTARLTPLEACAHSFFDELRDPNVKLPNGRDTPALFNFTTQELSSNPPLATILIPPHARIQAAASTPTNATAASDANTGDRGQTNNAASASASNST
T1 sequence (P11309 whole entry): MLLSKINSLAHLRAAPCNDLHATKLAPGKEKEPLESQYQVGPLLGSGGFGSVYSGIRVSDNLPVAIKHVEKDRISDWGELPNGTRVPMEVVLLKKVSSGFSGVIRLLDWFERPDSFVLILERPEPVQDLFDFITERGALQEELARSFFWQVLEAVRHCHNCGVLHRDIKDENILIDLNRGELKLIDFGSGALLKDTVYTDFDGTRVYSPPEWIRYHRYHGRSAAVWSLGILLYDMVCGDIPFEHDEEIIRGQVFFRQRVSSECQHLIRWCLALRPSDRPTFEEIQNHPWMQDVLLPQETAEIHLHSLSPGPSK

Regarding `CC1C(c2ccncc2NC(=O)c2ccc(F)c(-c3c(F)cccc3F)n2)OC(C)[C@@H](O)C1O` (stereo in doubt) [Example 64, 6-(2,6-difluorophenyl)-N-(4-((2S,3R,4S,5S,6S)-4,5-dihydroxy-3,6-dimethyltetrahydro-2H-pyran-2-yl)pyridin-3-yl)-5-fluoropicolinamide], the pIC50 is 9.00 on PIM1 [1]; 7.80 at PIM2 [2]; 8.70 at PIM3 [3]; 6.26 on GSK3β; < 4.52 at hERG. In assay [4] (KMS11-Luc cells), this compound gave a pEC50 of 6.10.
For `CC1C(c2ccncc2NC(=O)c2ccc(F)c(-c3c(F)cccc3F)n2)OC(C)[C@H](O)C1O` (stereo in doubt) [Example 65, 6-(2,6-difluorophenyl)-N-(4-((2R,3S,4R,5R,6R)-4,5-dihydroxy-3,6-dimethyltetrahydro-2H-pyran-2-yl)pyridin-3-yl)-5-fluoropicolinamide], the negative logarithm of the IC50 (pIC50) against PIM1 [1] is 9.00; at PIM2 [2], 7.34; against PIM3 [3], 8.52; on GSK3β, 7.29; at hERG, < 4.52. Further, the pEC50 in assay [4] (KMS11-Luc cells) was 5.08.
For `CC[C@]1(O)[C@H](O)C[C@H](c2ccncc2NC(=O)c2nc(-c3c(F)cccc3F)c(F)cc2N)O[C@@H]1C` [Example 27, 3-amino-6-(2,6-difluorophenyl)-N-(4-((2R,4R,5S,6R)-5-ethyl-4,5-dihydroxy-6-methyltetrahydro-2H-pyran-2-yl)pyridin-3-yl)-5-fluoropicolinamide], the pIC50 against PIM1 [1] was 9.00; against PIM2 [2], 9.00; against PIM3 [3], 9.00; at GSK3β it was 6.60; on hERG, < 4.52.
`O=C(Nc1cnccc1[C@@H]1C[C@H](O)CC2(CC2)O1)c1ccc(F)c(-c2c(F)cccc2F)n1` [Example 60, 6-(2,6-difluorophenyl)-5-fluoro-N-(4-((5S,7S)-7-hydroxy-4-oxaspiro[2.5]octan-5-yl)pyridin-3-yl)picolinamide]: the figures for the negative-log IC50 (pIC50) on PIM2 [2], at GSK3β and at hERG were 7.55, 7.04 and < 4.52, respectively. Besides, in assay [4] (KMS11-Luc cells), the negative-log EC50 (pEC50) was < 5.00.
`C[C@H]1O[C@@H](c2ccncc2NC(=O)c2ccc(F)c(-c3ccccc3)n2)C[C@@H](N)[C@]1(C)O` [Example 320, N-(4-((2R,4R,5S,6R)-4-amino-5-hydroxy-5,6-dimethyltetrahydro-2H-pyran-2-yl)pyridin-3-yl)-5-fluoro-6-phenylpicolinamide]: the pIC50 on GSK3β (ATP depletion assay) is 5.49; on PIM1 [5], 9.00; at PIM2 [6], 6.61; at PIM3 [7], 7.38. Moreover, in assay [4] (setting [8]), the pEC50 was 5.33.
With `C[C@H]1O[C@@H](c2ccncc2NC(=O)c2ccc(F)c(-c3ccc(S(C)(=O)=O)cc3)n2)C[C@@H](N)[C@]1(C)O` [Example 321, N-(4-((2R,4R,5S,6R)-4-amino-5-hydroxy-5,6-dimethyltetrahydro-2H-pyran-2-yl)pyridin-3-yl)-5-fluoro-6-(4-(methylsulfonyl)phenyl)picolinamide], the negative-log IC50 (pIC50) was 5.73 on GSK3β (ATP depletion assay), 8.33 on PIM1 [5], 5.86 at PIM2 [6] and 6.11 on PIM3 [7]. For the same compound, the pEC50 in [4] (setting [8]) was < 5.00.
The corresponding values for `Cc1cc(F)c(-c2nc(C(=O)Nc3cnccc3[C@H]3C[C@@H](N)[C@H](O)[C@@H](C4CC4)O3)ccc2F)c(F)c1` [Example 322, N-(4-((2R,4R,5S,6R)-4-amino-6-cyclopropyl-5-hydroxytetrahydro-2H-pyran-2-yl)pyridin-3-yl)-6-(2,6-difluoro-4-methylphenyl)-5-fluoropicolinamide] are 5.28, 9.52, 8.17, 8.05 and 6.64.
The corresponding values for `COc1cc(F)c(-c2nc(C(=O)Nc3cnccc3[C@H]3C[C@@H](N)[C@H](O)[C@@H](C4CC4)O3)ccc2F)c(F)c1` [Example 323, N-(4-((2R,4R,5S,6R)-4-amino-6-cyclopropyl-5-hydroxytetrahydro-2H-pyran-2-yl)pyridin-3-yl)-6-(2,6-difluoro-4-methoxyphenyl)-5-fluoropicolinamide] are 5.38, 9.52, 7.87, 8.01 and 6.72.
The like results for `Cc1cc(F)c(-c2nc(C(=O)Nc3cnccc3[C@@H]3C[C@H](N)[C@@H](O)[C@H](C4CC4)O3)ccc2F)c(F)c1` [Example 324, N-(4-((2S,4S,5R,6S)-4-amino-6-cyclopropyl-5-hydroxytetrahydro-2H-pyran-2-yl)pyridin-3-yl)-6-(2,6-difluoro-4-methylphenyl)-5-fluoropicolinamide] were, in that order, < 4.60, 8.47, 6.40, 6.74 and 5.36.
Turning to `COc1cc(F)c(-c2nc(C(=O)Nc3cnccc3[C@@H]3C[C@H](N)[C@@H](O)[C@H](C4CC4)O3)ccc2F)c(F)c1` [Example 325, N-(4-((2S,4S,5R,6S)-4-amino-6-cyclopropyl-5-hydroxytetrahydro-2H-pyran-2-yl)pyridin-3-yl)-6-(2,6-difluoro-4-methoxyphenyl)-5-fluoropicolinamide], the negative-log IC50 (pIC50) on GSK3β (ATP depletion assay) was < 4.60; at PIM1 [5], 8.40; at PIM2 [6], 6.30; at PIM3 [7], 6.74. Besides, the pEC50 in assay [4] (setting [8]) is 5.26.
On to `CS(=O)(=O)c1cc(F)c(-c2nc(C(=O)Nc3cnccc3[C@@H]3C[C@H](N)[C@@H](O)[C@H](C4CC4)O3)ccc2F)c(F)c1` [Example 326, N-(4-((2S,4S,5R,6S)-4-amino-6-cyclopropyl-5-hydroxytetrahydro-2H-pyran-2-yl)pyridin-3-yl)-6-(2,6-difluoro-4-(methylsulfonyl)phenyl)-5-fluoropicolinamide], for which the pIC50 was < 4.60 on GSK3β (ATP depletion assay), 7.56 on PIM1 [5], 5.66 on PIM2 [6] and 5.71 at PIM3 [7]. For the same compound, the pEC50 in [4] (setting [8]) is < 5.00.
The corresponding values for `CSc1ccc(F)c(-c2nc(C(=O)Nc3cnccc3[C@H]3C[C@@H](N)[C@](C)(O)[C@@H](C)O3)ccc2F)c1F` [Example 327, N-(4-((2R,4R,5S,6R)-4-amino-5-hydroxy-5,6-dimethyltetrahydro-2H-pyran-2-yl)pyridin-3-yl)-6-(2,6-difluoro-3-(methylthio)phenyl)-5-fluoropicolinamide] are 6.19, 10.15, 7.73, 8.59 and 6.51.
